This is an account of results in ChEMBL document CHEMBL1201862, “PubChem BioAssay data set” (2004).

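The compound was tested at five concentrations on cells cultured in 96-well plates, with a 48-hour exposure period. GI50 is the concentration that inhibits growth by half.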 Active and inactive are the calls of the source. Cut-off read from the data, not from the text of the source: active = GI50 up to about 1.1 µM and inactive = higher.

Among the test systems are ACHN; OVCAR-8; 786-0; UO-31; MDA-MB-435; LOX IMVI; NCI-H23; A498; COLO 205; NCI-H460; EKVX; MOLT-4; T47D; HCC 2998; HOP-92; SF-539; KM12; NCI-H522; Malme-3M; OVCAR-4.
Test in all cases: growth of human tumour cells (NCI), 48 h

Turning to `COC(=O)C1(NC(=O)C(Cc2ccccc2)N(C(=O)OC(C)(C)C)C(=O)OC(C)(C)C)CCCC1` (stereo not given), the GI50 with ACHN was > 10 µM (inactive); with OVCAR-8 it was 43.9 µM (inactive); in the experiment with 786-0, > 10 µM (inactive); in the experiment with UO-31, 64 µM (inactive); in the experiment on MDA-MB-435, 83.9 µM (inactive); in the experiment with LOX IMVI, > 100 µM (inactive). In addition, the GI50 is 30.5 µM (inactive) in the experiment on NCI-H23; 25.8 µM (inactive) in the experiment with A498; > 100 µM (inactive) in the experiment with COLO 205; 46.1 µM (inactive) in the experiment with NCI-H460; 66.2 µM (inactive) in the experiment on EKVX; 31.8 µM (inactive) with MOLT-4. Further, the GI50 is 36.6 µM (inactive) with T47D, 19.9 µM (inactive) in the experiment with HCC 2998, 59.2 µM (inactive) in the experiment with HOP-92 and > 100 µM (inactive) with SF-539.

With `Cc1cc(C#N)c(Nc2ccc(F)cc2[N+](=O)[O-])s1`, the GI50 is 83.8 µM (inactive) in the experiment with ACHN; > 100 µM (inactive) in the experiment with OVCAR-8; 54.5 µM (inactive) in the experiment on 786-0; > 100 µM (inactive) in the experiment with UO-31; > 100 µM (inactive) in the experiment with MDA-MB-435; > 100 µM (inactive) in the experiment with KM12. Further, the GI50 was > 100 µM (inactive) with NCI-H522; > 100 µM (inactive) in the experiment on NCI-H23; > 100 µM (inactive) with A498; 70.6 µM (inactive) in the experiment with Malme-3M; > 100 µM (inactive) in the experiment on COLO 205; > 100 µM (inactive) in the experiment with NCI-H460. The GI50 in the experiment with EKVX is > 100 µM (inactive); in the experiment on OVCAR-4, > 100 µM (inactive); in the experiment on MOLT-4, > 100 µM (inactive); in the experiment on T47D it was > 100 µM (inactive); in the experiment with HCC 2998, > 100 µM (inactive); in the experiment on HOP-92 it was 33.4 µM (inactive). Besides, the GI50 in the experiment on SF-539 was 80.7 µM (inactive).

Consider `O=C1C2=Cc3ccccc3OC2(O)Oc2ccc(O)cc21` (stereo not given), for which the GI50 is 15.8 µM (inactive) in the experiment with ACHN; 69.5 µM (inactive) with OVCAR-8; > 100 µM (inactive) with 786-0; > 100 µM (inactive) in the experiment with MDA-MB-435; > 100 µM (inactive) in the experiment on LOX IMVI; > 100 µM (inactive) in the experiment on KM12. Also, the GI50 in the experiment on NCI-H23 is 84.1 µM (inactive); in the experiment on A498, > 100 µM (inactive); in the experiment with Malme-3M, 91.2 µM (inactive); in the experiment on COLO 205 it was 40.8 µM (inactive); with EKVX it was > 100 µM (inactive); in the experiment on MOLT-4, 62.5 µM (inactive). Moreover, the GI50 in the experiment on T47D was > 100 µM (inactive); in the experiment with HCC 2998, > 100 µM (inactive); in the experiment on HOP-92, 46.8 µM (inactive); in the experiment on SF-539 it was > 100 µM (inactive).

Regarding `c1ccc(COC2C3COC(O3)C(OCc3ccccc3)C2OCc2ccccc2)cc1` (stereo not given), the GI50 in the experiment with ACHN is 27.5 µM (inactive); in the experiment with OVCAR-8 it was 60.7 µM (inactive); in the experiment with 786-0, 64.4 µM (inactive); with UO-31 it was 56.2 µM (inactive); with MDA-MB-435 it was 18.2 µM (inactive); with LOX IMVI it was 30.6 µM (inactive). Moreover, the GI50 with KM12 was 29.6 µM (inactive); in the experiment on NCI-H522, 15.1 µM (inactive); in the experiment with NCI-H23, 77.3 µM (inactive); in the experiment with A498, > 100 µM (inactive); in the experiment with COLO 205, 41 µM (inactive); with NCI-H460, 22 µM (inactive). Further, the GI50 in the experiment on EKVX was 38.7 µM (inactive); in the experiment on OVCAR-4, 49.1 µM (inactive); in the experiment with MOLT-4 it was 6.75 µM (inactive); in the experiment with T47D, 22.9 µM (inactive); in the experiment on HCC 2998, 14.6 µM (inactive); with HOP-92 it was 67.1 µM (inactive). Also, the GI50 in the experiment on SF-539 is > 100 µM (inactive).

`CN(C)CC1CCCCCCCCCC(CN(C)C)C1=O` (stereo not given): the GI50 in the experiment with ACHN is > 31 µM (inactive); in the experiment with OVCAR-8, > 32.3 µM (inactive); in the experiment on 786-0, > 20.6 µM (inactive); in the experiment on UO-31 it was > 38.7 µM (inactive); in the experiment on MDA-MB-435 it was 4.94 µM (inactive); in the experiment on KM12 it was > 21.4 µM (inactive). The GI50 in the experiment with NCI-H522 was 2.7 µM (inactive); in the experiment on NCI-H23, > 27.6 µM (inactive); in the experiment on A498, > 28.4 µM (inactive); in the experiment with Malme-3M, > 35.2 µM (inactive); with COLO 205, > 38.1 µM (inactive); with NCI-H460, > 36.8 µM (inactive). For the same compound, the GI50 with EKVX was > 39.9 µM (inactive); in the experiment with MOLT-4, 7.03 µM (inactive); in the experiment on T47D it was 7.06 µM (inactive); in the experiment with HCC 2998, > 100 µM (inactive); in the experiment with HOP-92 it was 20.4 µM (inactive); in the experiment on SF-539, > 27.7 µM (inactive).

With `Cc1cn(C2CC(n3cc(Cn4cc(I)c(=O)[nH]c4=O)nn3)C(CO)O2)c(=O)[nH]c1=O` (stereo not given), the GI50 with ACHN is > 100 µM (inactive); with OVCAR-8, > 100 µM (inactive); in the experiment with UO-31, > 10 µM (inactive); in the experiment with MDA-MB-435, > 100 µM (inactive); in the experiment with KM12, > 100 µM (inactive); with NCI-H23, > 100 µM (inactive). The GI50 with A498, in the experiment on COLO 205, in the experiment on OVCAR-4, in the experiment with MOLT-4, in the experiment with T47D and in the experiment with HCC 2998 was > 100 µM (inactive) in each case. Besides, the GI50 in the experiment on HOP-92 and in the experiment on SF-539 was > 100 µM (inactive) throughout.

`Fc1cc(-c2cc(-c3ccccc3)no2)c(Cl)cc1Cl`: the GI50 was > 35.2 µM (inactive) in the experiment on ACHN; > 26.8 µM (inactive) in the experiment with OVCAR-8; 15.5 µM (inactive) with 786-0; > 38.5 µM (inactive) with UO-31; 11.4 µM (inactive) with MDA-MB-435; 13.2 µM (inactive) in the experiment with LOX IMVI. For the same compound, the GI50 in the experiment with KM12 was 16.2 µM (inactive); in the experiment with NCI-H522, 14.9 µM (inactive); in the experiment with NCI-H23 it was 14 µM (inactive); in the experiment on A498 it was > 33 µM (inactive); with Malme-3M, 19.2 µM (inactive); in the experiment with COLO 205 it was 11.3 µM (inactive). Further, the GI50 with NCI-H460 is 16.7 µM (inactive); with EKVX it was 11.4 µM (inactive); with OVCAR-4 it was 22.9 µM (inactive); in the experiment on MOLT-4, 12.4 µM (inactive); in the experiment with T47D, 14 µM (inactive); in the experiment on HOP-92 it was 7.69 µM (inactive). For the same compound, the GI50 with SF-539 was > 12.4 µM (inactive).

Take `COc1ccc(Cc2nc3cc(C(F)(F)F)ccc3n2CCCN(C)C)cc1`: the GI50 is 27.2 µM (inactive) in the experiment on ACHN; 30.6 µM (inactive) in the experiment with OVCAR-8; 0.246 µM (active) with UO-31; 16.1 µM (inactive) with MDA-MB-435; 19.8 µM (inactive) with LOX IMVI; 16.7 µM (inactive) in the experiment on KM12. For the same compound, the GI50 was 14.8 µM (inactive) with NCI-H522; 15.7 µM (inactive) in the experiment on NCI-H23; 17.3 µM (inactive) in the experiment with A498; 13.7 µM (inactive) with Malme-3M; 18 µM (inactive) in the experiment on COLO 205; 20.3 µM (inactive) with NCI-H460. Also, the GI50 with EKVX was 23.6 µM (inactive); in the experiment on OVCAR-4, 27.2 µM (inactive); in the experiment on MOLT-4 it was 2.27 µM (inactive); in the experiment with T47D it was 15.7 µM (inactive); in the experiment on HCC 2998, 3.93 µM (inactive); in the experiment with HOP-92, 26.5 µM (inactive).

Take `CC(=O)Oc1c(C)c2c(c3ccccc13)OC(C)(C)C2`: the GI50 is 17.3 µM (inactive) with ACHN; 16.8 µM (inactive) in the experiment on OVCAR-8; 15.3 µM (inactive) in the experiment on 786-0; 18.2 µM (inactive) in the experiment with UO-31; 17.2 µM (inactive) with MDA-MB-435; 14.5 µM (inactive) with KM12. In addition, the GI50 is 18.4 µM (inactive) with NCI-H522; 14 µM (inactive) in the experiment on NCI-H23; 20.9 µM (inactive) in the experiment on A498; 16.3 µM (inactive) with Malme-3M; 20.3 µM (inactive) with COLO 205; 19.2 µM (inactive) with NCI-H460. Besides, the GI50 in the experiment with EKVX is 19.8 µM (inactive); in the experiment with OVCAR-4, 16.1 µM (inactive); in the experiment with MOLT-4 it was 15.1 µM (inactive); in the experiment on T47D, 20.3 µM (inactive); with HCC 2998, 16.5 µM (inactive); with HOP-92 it was 17.8 µM (inactive). Moreover, the GI50 in the experiment with SF-539 is 20.4 µM (inactive).

Consider `CNc1ccc([N+](=O)[O-])cc1C(=O)N1CCC[C@H]1CO`, for which the GI50 in the experiment with ACHN, with OVCAR-8, in the experiment with 786-0, in the experiment with UO-31, in the experiment with MDA-MB-435 and in the experiment on LOX IMVI was > 100 µM (inactive) in each case. Moreover, the GI50 in the experiment on KM12, in the experiment on NCI-H522, with NCI-H23, with A498, with Malme-3M and in the experiment with COLO 205 was > 100 µM (inactive) throughout. Besides, the GI50 in the experiment with NCI-H460, with EKVX, in the experiment with OVCAR-4, in the experiment on MOLT-4, in the experiment on T47D and in the experiment on HCC 2998 was > 100 µM (inactive) each time. Moreover, in the experiment on HOP-92, the GI50 is > 100 µM (inactive).

For the compound `FC(F)(F)c1ccc2c(c1)nc(Cc1ccc(Cl)cc1)n2CC1CCCN2CCCCC12` (stereo not given), the GI50 in the experiment on ACHN is 11.5 µM (inactive); in the experiment with OVCAR-8, 11.3 µM (inactive); in the experiment with 786-0 it was 7.67 µM (inactive); in the experiment on UO-31, 0.0194 µM (active); with MDA-MB-435, 6.27 µM (inactive); in the experiment on LOX IMVI it was 2.15 µM (inactive). The GI50 is 5.02 µM (inactive) in the experiment with KM12; 4.37 µM (inactive) in the experiment with NCI-H522; 14.2 µM (inactive) in the experiment on A498; 1.73 µM (inactive) in the experiment on Malme-3M; 3.96 µM (inactive) with COLO 205; 7.66 µM (inactive) with NCI-H460. Besides, the GI50 is 11.1 µM (inactive) in the experiment on EKVX; 12.2 µM (inactive) in the experiment with OVCAR-4; 3.18 µM (inactive) in the experiment on MOLT-4; 6.61 µM (inactive) with T47D; 2.11 µM (inactive) in the experiment with HCC 2998; 7.67 µM (inactive) in the experiment on HOP-92.
